Publication PMC6072516, “Rational design and synthesis of novel phenylsulfonyl-benzamides as anti-prostate cancer agents” (MedChemComm, 2017)
Like-named read-outs stand apart in the source and are kept apart here.

Columns and labels:
[1] = system: four human prostate cancer cell lines: LNCaP, 22Rv1, VCaP, DU145; experiment: Antiproliferative assay, overall effect in the four cell lines (geometric mean); assay type: cell-based; settings: for IC50: geometric mean of the four cell lines, read-out: Absolute IC50 Geo. mean
Procedure: PCR based DNA-fingerprinting methodology.
density of 4.000 – 30.000 cells/well.
test compound were added.
concentrations in triplicate.
After an incubation period of
control/background ratio >3.0
The absolute IC50 value reflects the
The calculation was done by a 4
for calculation of the geometric mean value.
of 0.05% Trypsin/EDTA. […] When all cells

[2] = Cell Titer Blue viability (cytotoxicity) assay; assay type: cell-based, human; settings: human
Procedure: A Cell Titer Blue viability assay was performed in the human embryonic kidney cell line HEK293, in order to evaluate the cytotoxicity profile of the newly prepared compounds. […] .
Fig. 5 HEK293 human embryonic kidney cells were treated at 70% confluence with negative controls (0.1% DMSO, BICAL at 10 μM), positive control (10% DMSO) and compounds at 10 μM concentration for 24 hours. […] Fluorescence was measured at 560/590 nm using a CLARIOstar luminescence plate reader (BMG Labtech). N = 4, n = 6 for controls, n = 3 for drugs. […]
for calculation of the geometric mean value. […]
of 0.05% Trypsin/EDTA. […] When all cells […]
chamber counting grid (Immune Systems). […]
confluence for assay the next day. […]
drugs at 10 µM concentration.
100 µl media. […] Fluorescence was measured
USA). […] The Dunnett’s multiple […]
comparison test was used to compare each drug and the positive control to the negative control […]
Compound R1 X R2 Cell Viability Antiproliferative
Mean (%)* SEM** Abs. IC50
Table S2. Cell Viability assay at 10 µM. * Mean % of cell viability relative to control; ** Errors are calculated as standard error of the mean; ***Geometric mean.

LNCaP = experiment: 2D monolayer antiproliferative assay (propidium iodide), LNCaP; settings: for IC50: Homo sapiens, LNCaP, 96 h, read-out: Absolute IC50 LNCaP
Procedure: (§1) All new compounds along with the two standards were tested for their ability to inhibit survival and/or cell proliferation in four human prostate cancer cell lines: LNCaP, 22Rv1, VCaP, androgen-sensitive cell lines, and DU145, a non hormone-sensitive cell line.
(§2) Compound Handling: Stock solutions for all inhibitors were prepared in DMSO at a
(§3) were well soluble at this concentration in DMSO and precipitation was not observed for any
(§4) compound dissolved in 100% DMSO. Aliquots of the stock solution were thawed on the day
(§5) of use and stored at room temperature prior to and during treatment. The subsequent dilutions
(§6) were done with complete RPMI1640 cell culture medium. The DMSO stock solution was first
(§7) Starting with this solution, serial dilutions in
(§8) half-log steps with cell culture medium were done using an intermediate dilution plate. Finally,
(§9) 10 µl taken from the intermediate dilution plate were transferred to 140 µl / well of the cell
(§10) culture plate. Thus, at the highest test concentration the DMSO stock was diluted 1:330,
(§11) corresponding to a maximum DMSO concentration of 0.3 % v/v in the assay. Solubility of the
(§12) diluted compounds in the assay was monitored under the microscope by visual inspection of
(§13) the treated cell lines after the 4 days incubation. Precipitation as observed by crystalline
(§14) Tumor Cell lines: The cell line panel used for assessing the novel inhibitors comprised four
(§15) cell lines derived from human prostate cancers.
(§16) 6-7 Cell lines were routinely passaged once or twice weekly and maintained in culture for up to 20 passages. All cells were grown at 37°C in
(§17) glutamine, #FG1385, Biochrom, Berlin, Germany) supplemented with 10% (v/v) fetal calf serum (Sigma, Taufkirchen, Germany) and 0.1 mg/mL gentamicin (Life Technologies,
(§18) Cell Proliferation Assay: A modified propidium iodide (PI) based monolayer assay was used
(§19) exponential phase cultures, counted and plated in 96-well flat-bottom micro titer plates at a cell density of 4.000 – 30.000 cells/well. After a 24 h recovery period to allow the cells to resume exponential growth, 10 µl of culture medium (six control wells/plate) or culture medium with test compound were added. The compounds were applied in half-log increments at 10 concentrations in triplicate. After a total treatment period of 96 h, cells were washed with 200 µl PBS to remove dead cells and debris. Then, 200 µl of a solution containing 7 µg/ml propidium iodide (PI) and 0.1% (v/v) Triton X-100 was added. After an incubation period of 1-2 hours at room temperature, fluorescence (FU) was measured using the EnSpire Multimode Plate Reader (excitation λ= 530 nm, emission λ= 620 nm) to quantify the amount of attached
(§20) For calculation of mean IC50 values the geometric mean was used.
(§21) Data Evaluation: An assay was considered fully evaluable if the following quality control
(§22) - Z’-factor calculated within the assay plate ≥0.59
(§23) - fluorescence intensity of >500 U from the untreated control wells, equivalent to a
(§24) - coefficient of variation in the growth control wells ≤30
(§25) Compound effects were expressed in terms of the percentage of the fluorescence signal, obtained by comparison of the mean signal in the treated wells with the mean signal of the untreated controls (expressed by the test-versus-control value, T/C-value [%]):

22Rv1 = experiment: 2D monolayer antiproliferative assay (propidium iodide), 22Rv1; settings: Homo sapiens, 22Rv1, 96 h, read-out: Absolute IC50 22Rv1
Procedure: as §1, §2, §3, §4, §5, §6, §7, §8, §9, §10, §11, §12, §13, §14, §15, §16, §17, §18, §19, §20, §21, §22, §23, §24, §25

DU-145 = experiment: 2D monolayer antiproliferative assay (propidium iodide), DU-145; settings: Homo sapiens, DU-145, 96 h, read-out: Absolute IC50 DU-145
Procedure: as §1, §2, §3, §4, §5, §6, §7, §8, §9, §10, §11, §12, §13, §14, §15, §16, §17, §18, §19, §20, §21, §22, §23, §24, §25

VCaP = experiment: 2D monolayer antiproliferative assay (propidium iodide), VCaP; settings: Homo sapiens, 96 h, read-out: Absolute IC50 VCaP
Procedure: as §1, §2, §3, §4, §5, §6, §7, §8, §9, §10, §11, §12, §13, §14, §15, §16, §17, §18, §19, §20, §21, §22, §23, §24, §25

[3] = 10 µM, 24 h, HEK293, mean % of cell viability relative to control, read-out: Cell Viability Mean (%)

Structure (SMILES) | IC50 ([1]; Homo sapiens) [µM] | IC50 [1] [µM] | viability at 24 h, 10 µM ([2]; HEK293 cells, 10 µM, 24 h, HEK293, mean % of cell viability relative to control, read-out: Cell Viability Mean (%)) [%] | IC50 (LNCaP) [µM] | IC50 (22Rv1) [µM] | viability at 24 h, 10 µM [2, 3] [%] | IC50 (DU-145) [µM] | IC50 (VCaP) [µM] | viability at 24 h, 10 µM [2] [%] | reduction of overall effect in the four cell lines, ortho vs meta CF3 ([1]; 11h vs 11i) [fold] | increase of IC50 values, sulfone vs thioether ([1]; 11c vs 13c) | Absolute IC50 LNCaP (LNCaP; 96 h treatment, mean of triplicate, SD ±10%)
C[C@](O)(CS(=O)(=O)c1ccc(F)cc1)C(=O)Nc1ccc(C#N)c(C(F)(F)F)c1 [Bicalutamide, bicalutamide, reference compound] | 50 | 52.4 | 94.6 |  |  |  |  |  |  |  |  | 
N#Cc1ccc(NC(=O)c2ccc(Sc3ccc(O)cc3)cc2)cc1C(F)(F)F [Compound 11a] | 7.08 |  |  | 5.43 | 6.24 | 65.7 | 7.77 | 9.55 |  |  |  | 
O=C(Nc1ccc([N+](=O)[O-])c(C(F)(F)F)c1)c1ccc(Sc2ccc(O)cc2)cc1 [Compound 11b] | 4.68 |  |  | 3.58 | 4.5 |  | 5.74 | 5.19 | 65.4 |  |  | 
O=C(Nc1cc(C(F)(F)F)cc(C(F)(F)F)c1)c1ccc(Sc2ccc(O)cc2)cc1 [Compound 11c] | 3.28 |  |  | 2.39 | 3.35 |  | 5.6 | 2.59 | 64.2 |  |  | 
O=C(Nc1cc(C(F)(F)F)ccc1C(F)(F)F)c1ccc(Sc2ccc(O)cc2)cc1 [Compound 11d] | 12.1 |  |  | 11.4 | 10.3 |  | 16.6 | 10.9 | 53.7 |  |  | 
O=C(Nc1ccc(S(F)(F)(F)(F)F)cc1)c1ccc(Sc2ccc(O)cc2)cc1 [Compound 11e] | 5.43 |  |  | 4.86 | 3.71 |  | 6.76 | 7.15 | 49.5 |  |  | 
O=C(Nc1cccc(S(F)(F)(F)(F)F)c1)c1ccc(Sc2ccc(O)cc2)cc1 [Compound 11f] | 4.01 |  |  | 3.32 | 2.94 |  | 4.35 | 6.1 | 60.5 |  |  | 
O=C(Nc1ccc(C(F)(F)F)cc1)c1ccc(Sc2ccc(O)cc2)cc1 [Compound 11g] | 8.09 |  |  | 8.3 | 6.23 |  | 8.55 | 9.68 | 66.3 |  |  | 
O=C(Nc1cccc(C(F)(F)F)c1)c1ccc(Sc2ccc(O)cc2)cc1 [Compound 11h] |  |  |  | 9.66 | 5.73 |  | 5.95 | 10.6 | 85.6 |  |  | 
O=C(Nc1ccccc1C(F)(F)F)c1ccc(Sc2ccc(O)cc2)cc1 [Compound 11i] | 25.2 |  |  | 11.4 | 30.9 |  | 35.7 | 32.3 | 111 | 3 |  | 
N#Cc1ccc(NC(=O)c2ccc(Sc3cccc(C(F)(F)F)c3)cc2)cc1C(F)(F)F [Compound 12a] | 5.5 |  |  | 8.87 | 3.57 | 60 | 5.12 | 5.66 |  |  |  | 
O=C(Nc1cccc(C(F)(F)F)c1)c1ccc(Sc2cccc(C(F)(F)F)c2)cc1 [Compound 12h] | < 16 | 12.5 |  | 12.5 | 6.96 |  | 9.89 | 28.2 | 112 |  |  | 
N#Cc1ccc(NC(=O)c2ccc(S(=O)(=O)c3ccc(O)cc3)cc2)cc1C(F)(F)F [Compound 13a] | 8.84 |  |  | 4.68 | 12.1 | 73 | 12.6 | 8.56 |  |  |  | 
O=C(Nc1ccc([N+](=O)[O-])c(C(F)(F)F)c1)c1ccc(S(=O)(=O)c2ccc(O)cc2)cc1 [Compound 13b] |  |  |  | 4.96 | 7.3 |  | 8.85 | 8.57 | 82.3 |  |  | 
O=C(Nc1cc(C(F)(F)F)cc(C(F)(F)F)c1)c1ccc(S(=O)(=O)c2ccc(O)cc2)cc1 [Compound 13c] | 8.5 |  |  | 8.41 | 6.44 |  | 9.92 | 9.72 | 65.7 |  | up to 2 fold | 
O=C(Nc1cc(C(F)(F)F)ccc1C(F)(F)F)c1ccc(S(=O)(=O)c2ccc(O)cc2)cc1 [Compound 13d] | 25.2 |  |  | 23.2 | 20.7 |  | 27.8 | 30.5 |  |  |  | 
O=C(Nc1cccc(S(F)(F)(F)(F)F)c1)c1ccc(S(=O)(=O)c2ccc(O)cc2)cc1 [Compound 13f, N-(3-(Pentafluorosulfanyl)phenyl)-4-((4-hydroxyphenyl)sulfonyl)benzamide] | 6.18 |  |  | 3.98 | 5.66 |  | 6.01 | 10.8 | 76.2 |  |  | 
O=C(Nc1ccc(C(F)(F)F)cc1)c1ccc(S(=O)(=O)c2ccc(O)cc2)cc1 [Compound 13g] | 19.7 |  |  | 10.8 | 16.8 |  | 30.7 | 27.2 | 61.8 |  |  | 
O=C(Nc1cccc(C(F)(F)F)c1)c1ccc(S(=O)(=O)c2ccc(O)cc2)cc1 [Compound 13h] | < 16 | 16.8 |  | 10.2 | 15.1 |  | 17.7 | 30.1 | 87.6 |  |  | 
O=C(Nc1ccccc1C(F)(F)F)c1ccc(S(=O)(=O)c2ccc(O)cc2)cc1 [Compound 13i] | 49.1 |  |  | 39.3 | 49.3 |  | 45.9 | 65.2 | 129 |  |  | 
O=C(Nc1ccc(S(F)(F)(F)(F)F)cc1)c1ccc([S+]([O-])c2ccc(O)cc2)cc1 (centres unmarked) [Compound 14e, 4-((4-Hydroxyphenyl)sulfinyl)-N-(4-(pentafluorothio)phenyl)benzamide] | 3.75 |  |  | 0.9 | 5.6 |  | 11 | 3.53 | 59.7 |  |  | sub μM
O=C(Nc1ccccc1C(F)(F)F)c1ccc([S+]([O-])c2ccc(O)cc2)cc1 (centres unmarked) [Compound 14i] |  |  |  | 62 | > 100 |  | > 100 | 97.6 | 104 |  |  | 
N#Cc1ccc(NC(=O)c2ccc(S(=O)(=O)c3cccc(C(F)(F)F)c3)cc2)cc1C(F)(F)F [Compound 15a] | 4.71 |  |  | 3.73 | 3.57 | 79 | 4.7 | 7.87 |  |  |  | 
O=C(Nc1cccc(C(F)(F)F)c1)c1ccc(S(=O)(=O)c2cccc(C(F)(F)F)c2)cc1 [Compound 15h] |  |  |  |  |  |  |  |  | 83.9 |  |  | 
